The subject of one series is SKOV3 cells. Nature of the series: Serum starved proliferation assay on the ovarian carcinoma SKOV3 cells (C3). Type of series: cell-based. As to conditions: Homo sapiens, SK-OV-3, 72 h, EGF stimulated (100 ng/ml, 72 hours, serum free) or 72 hours with compounds; MTT cell viability assay; read-out: SKOV3 cell (C3): pIC50 (converted). Summed up:
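SKOV3 cells grown 24 h in 10% FCS, then treated with compound under serum-free conditions (37 °C, 5% CO2) and stimulated 72 h with EGF at 100 ng/ml final; read-out by MTT viability. Alternative format: compound for 72 h after the same 24 h FCS step, also by MTT.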
(In general: Formazan colour is commonly taken as a measure of viable cells.)

In another series the target is EGFR (Homo sapiens, UniProt P00533). Nature of the series: In vitro inhibition of EGFR, Flash Plate or glass-fiber filter technology (C2). Particulars: EGFR-kinase domain, 5.0 μM unlabeled ATP, read-out: Kinase activity.(C2): pIC50 (converted). Set-up: 0.5 μg EGFR-kinase domain/well. Type of series: biochemical. A digest of the protocol: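 EGFR kinase domain (0.5 μg/well) phosphorylated poly(GT) with 5.0 μM ATP plus AT^33P, dose response 1·10^−6 to 1·10^−10 M. Flash Plate: biotin-poly(GT), Tris pH 8.0, 30° C, 60 min, scintillation counting. Filter: Tris pH 7.5 with MnCl2, 25° C, 10 min, 33P counted on glass-fiber filter by phosphorimaging.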
EGFR, sequence (P00533 712-979 limits assumed): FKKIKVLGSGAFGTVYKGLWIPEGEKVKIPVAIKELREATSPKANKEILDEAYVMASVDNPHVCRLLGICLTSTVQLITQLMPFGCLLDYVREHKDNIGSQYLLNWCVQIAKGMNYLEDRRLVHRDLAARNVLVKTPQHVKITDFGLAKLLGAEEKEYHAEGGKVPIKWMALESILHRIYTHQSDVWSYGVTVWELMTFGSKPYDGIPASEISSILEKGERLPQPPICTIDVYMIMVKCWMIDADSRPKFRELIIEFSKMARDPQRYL

For the compound `COc1cc2ncnc3c2cc1OCCNC(=O)C(C)(C)NC(=O)Cc1ccc(Cl)cc1N3` [Compound 65, 4,6-ethanediylidene-8H-pyrimido[4,5-b][6,1,9,12]benzoxatriazacyclohexadecine-11,14-dione, 18-chloro-9,10,12,13,15,20-hexahydro-21-methoxy-12,12-dimethyl-], the melting point amounted to 285 °C. For the same compound, in the series on SKOV3 cells, the IC50 is 20 nM. The IC50 at EGFR is 12.6 nM.

In turn, `COc1cc2ncnc3c2cc1OCCCNC(=O)C1CCCN1Cc1ccc(Cl)cc1N3` (stereo not drawn) [Compound 77, 4,6-ethanediylidene-12H-pyrimido[4,5-b]pyrrolo[2,1-l][6,1,10,13]benzoxatriazacyclohexadecin-12-one, 20-chloro-8,9,10,11,12a,13,14,15,17,22-decahydro-23-methoxy-] had a melting point of 129.8 to 132.8 °C.

The compound `COc1cc2ncnc3c2cc1OCCCNC(=O)C1CCCN1Cc1ccc(Cl)cc1N3` (stereo not drawn) [Compound 84, 4,6-ethanediylidene-12H-pyrimido[4,5-b]pyrrolo[2,1-l][6,1,10,13]benzoxatriazacyclohexadecin-12-one, 20-chloro-8,9,10,11,12a,13,14,15,17,22-decahydro-23-methoxy-] showed a melting point of 231.9 to 232.8 °C.

With `COc1cc2ncnc3c2cc1OCCNC(=O)C1CCN(CC1)Cc1ccc(Cl)cc1N3` [Compound 87, 8H-4,6-ethanediylidene-12,15-ethanopyrimido[4,5-b][6,1,9,14]benzoxatriazacycloheptadecin-11(12H)-one, 19-chloro-9,10,13,14,16,21-hexahydro-24-methoxy-], the melting point is 246.6 to 248.2 °C.

Compound `COc1cc2ncnc3c2cc1OCCNC(=O)C(C)N(C)Cc1ccc(Cl)cc1N3` (stereo not drawn) [Compound 89, 4,6-ethanediylidenepyrimido[4,5-b][6,1,9,12]benzoxatriazacyclopentadecin-11(8H)-one, 17-chloro-9,10,12,13,14,19-hexahydro-20-methoxy-12,13-dimethyl-] returned a melting point of 265 °C.

Take `CCN1CC(=O)NCCOc2cc3c(ncnc3cc2OC)Nc2cc(Cl)ccc2C1` [Compound 90, 4,6-ethanediylidenepyrimido[4,5-b][6,1,9,12]benzoxatriazacyclopentadecin-11(8H)-one, 17-chloro-13-ethyl-9,10,12,13,14,19-hexahydro-20-methoxy-]: the melting point was in the range of 261.1 to 262 °C.

The compound `COc1cc2ncnc3c2cc1OCCNC(=O)C(CO)NCc1ccc(Cl)cc1N3` (stereo not drawn) [Compound 91, 4,6-ethanediylidenepyrimido[4,5-b][6,1,9,12]benzoxatriazacyclopentadecin-11(8H)-one, 17-chloro-9,10,12,13,14,19-hexahydro-12-(hydroxymethyl)-20-methoxy-] gave a melting point of 276.3 to 277.4 °C.

`COc1cc2ncnc3c2cc1OCCCNC(=O)CN1CCN(CC1)Cc1ccc(Cl)cc1N3` [Compound 93, 4,6-ethanediylidene-14,17-ethanopyrimido[4,5-b][6,1,10,13,16]benzoxatetraazacyclononadecin-12(13H)-one, 21-chloro-8,9,10,11,15,16,18,23-octahydro-26-methoxy-] returned a melting point of 286.8 to 287.6 °C.

The compound `COc1cc2ncnc3c2cc1OCCCNC(=O)C1CCCN(Cc2ccc(Cl)cc2N3)C1` (stereo not drawn) [Compound 95, 12H-4,6-ethanediylidene-13,17-methanopyrimido[4,5-b][6,1,10,16]benzoxatriazacyclononadecin-12-one, 21-chloro-8,9,10,11,13,14,15,16,18,23-decahydro-25-methoxy-] yielded a melting point of 240.1 to 242.8 °C.

For the compound `COc1cc2ncnc3c2cc1OCC(=O)NC(CO)C(=O)NCCc1ccc(Cl)cc1N3` (stereo not drawn) [Compound 148, 4,6-ethanediylidene-8H-pyrimido[4,5-b][6,1,9,12]benzoxatriazacyclohexadecine-9,12-dione, 18-chloro-10,11,13,14,15,20-hexahydro-11-(hydroxymethyl)-21-methoxy-], the IC50 is 10000 nM in the series with SKOV3 cells and 251 nM at EGFR.

`COc1cc2ncnc3c2cc1OCC(=O)N1CC(O)CC1C(=O)NCCc1ccc(Cl)cc1N3` (stereo not drawn) [Compound 149, 1,21-ethanediylidene-5H-pyrimido[4,5-b]pyrrolo[1,2-i][6,1,9,12]benzoxatriazacyclohexadecine-13,18(19H)-dione, 7-chloro-10,11,12,13a,14,15,16-heptahydro-15-hydroxy-23-methoxy-]: the figures for the IC50 in the series with SKOV3 cells and on EGFR were 1580 nM and 126 nM, respectively.

In the case of `COc1cc2ncnc3c2cc1OCC(=O)NCC(=O)NCc1ccc(Cl)cc1N3` [Compound 151, 4,6-ethenopyrimido[4,5-b][6,1,9,12]benzoxatriazacyclopentadecine-9,12(8H,13H)-dione, 17-chloro-10,11,14,19-tetrahydro-20-methoxy-], the IC50 in the series with SKOV3 cells is 10000 nM; on EGFR, 3160 nM.

As for `COc1cc2ncnc3c2cc1OCC(=O)NCCC(=O)NCc1ccc(Cl)cc1N3` [Compound 152, 4,6-etheno-8H-pyrimido[4,5-b][6,1,9,13]benzoxatriazacyclohexadecine-9,13(10H,14H)-dione, 18-chloro-11,12,15,20-tetrahydro-21-methoxy-], the IC50 is 10000 nM with SKOV3 cells and 31.6 nM on EGFR.

For `COc1cc2ncnc3c2cc1OCCCC(=O)NCC(=O)NCc1ccc(Cl)cc1N3` [Compound 153, 4,6-ethenopyrimido[4,5-b][6,1,11,14]benzoxatriazacycloheptadecine-11,14(8H,15H)-dione, 19-chloro-9,10,12,13,16,21-hexahydro-22-methoxy-], the figures for the IC50 in the series with SKOV3 cells and on EGFR were 794 nM and 15.8 nM, respectively.

On to `COc1cc2ncnc3c2cc1OCCCC(=O)NCCCC(=O)NCc1ccc(Cl)cc1N3` [Compound 154, 4,6-ethenopyrimido[4,5-b][6,1,11,16]benzoxatriazacyclononadecine-11,16(8H,17H)-dione, 21-chloro-9,10,12,13,14,15,18,23-octahydro-24-methoxy-], for which the IC50 in the series with SKOV3 cells was 2510 nM; on EGFR, 39.8 nM.

For the compound `COc1cc2ncnc3c2cc1OCCCC(=O)NCCC(=O)NCc1ccc(Cl)cc1N3` [Compound 155, 4,6-etheno-8H-pyrimido[4,5-b][6,1,11,15]benzoxatriazacyclooctadecine-11,15(12H,16H)-dione, 20-chloro-9,10,13,14,17,22-hexahydro-23-methoxy-], the IC50 in the series on SKOV3 cells was 1000 nM; on EGFR it was 316 nM.

Regarding `COc1cc2ncnc3c2cc1OCC(=O)NCCCC(=O)NCc1ccccc1N3` [Compound 158, 4,6-ethanediylidenepyrimido[4,5-b][6,1,9,14]benzoxatriazacycloheptadecine-9,14(8H,15H)-dione, 10,11,12,13,16,21-hexahydro-22-methoxy-], the values for the IC50 with SKOV3 cells and at EGFR were 10000 nM and 5010 nM, respectively.

Consider `COc1cc2ncnc3c2cc1OCC(=O)N(C)CC(=O)NCc1ccc(Cl)cc1N3` [Compound 159, 4,6-ethanediylidenepyrimido[4,5-b][6,1,9,12]benzoxatriazacyclopentadecine-9,12(8H,13H)-dione, 17-chloro-10,11,14,19-tetrahydro-20-methoxy-10-methyl-], for which the IC50 was 2000 nM with SKOV3 cells and 316 nM at EGFR.

Regarding `COc1cc2ncnc3c2cc1OCC(=O)NCC(=O)NCCc1ccc(Cl)cc1N3` [Compound 160, 4,6-ethanediylidene-8H-pyrimido[4,5-b][6,1,9,12]benzoxatriazacyclohexadecine-9,12-dione, 18-chloro-10,11,13,14,15,20-hexahydro-21-methoxy-], the IC50 was 631 nM in the series on SKOV3 cells and 63.1 nM on EGFR.

For the compound `COc1cc2ncnc3c2cc1OCC(=O)NCCCC(=O)NCCc1ccc(Cl)cc1N3` [Compound 161, 4,6-ethanediylidene-8H-pyrimido[4,5-b][6,1,9,14]benzoxatriazacyclooctadecine-9,14-dione, 20-chloro-10,11,12,13,15,16,17,22-octahydro-23-methoxy-], the results for the IC50 in the series with SKOV3 cells and at EGFR were 1260 nM and 63.1 nM, respectively.

On to `COc1cc2ncnc3c2cc1OCCCCC(=O)NCCC(=O)NCc1ccc(Cl)cc1N3` [Compound 162, 4,6-ethanediylidenepyrimido[4,5-b][6,1,12,16]benzoxatriazacyclononadecine-12,16(13H,17H)-dione, 21-chloro-8,9,10,11,14,15,18,23-octahydro-24-methoxy-], for which the IC50 is 50.1 nM in the series on SKOV3 cells and 158 nM on EGFR.

As to `COc1cc2ncnc3c2cc1OCCCCC(=O)NCCCC(=O)NCc1ccc(Cl)cc1N3` [Compound 163, 4,6-ethanediylidene-8H-pyrimido[4,5-b][6,1,12,17]benzoxatriazacycloeicosine-12,17(18H)-dione, 22-chloro-9,10,11,13,14,15,16,19,24-nonahydro-25-methoxy-], the IC50 in the series with SKOV3 cells was 398 nM; on EGFR, 100 nM.

Consider `COc1cc2ncnc3c2cc1OCC(=O)N(C)CC(=O)NCCc1ccc(Cl)cc1N3` [Compound 164, 4,6-ethanediylidene-8H-pyrimido[4,5-b][6,1,9,12]benzoxatriazacyclohexadecine-9,12-dione, 18-chloro-10,11,13,14,15,20-hexahydro-21-methoxy-10-methyl-], for which the IC50 is 158 nM with SKOV3 cells and 501 nM at EGFR.

The term melting point denotes the temperature of the solid-liquid transition.

The record behind these values is US8394786B2, “Quinazoline derivatives” (Janssen Pharmaceutica N.V., priority 2003, dated 2013).
